Test results: ChEMBL document CHEMBL1201862, “PubChem BioAssay data set” (2004)
Activity calls are given as the source filed them.

Experiments:
[1] = A cytotoxicity screen of small molecule inhibitors of the PhoP region in Salmonella typhi identified in the primary screen. [Related pubchem assays: 1850, 1864, 1985 ]; assay type: functional
[2] = molecular target: T1, Apoptotic protease-activating factor 1 (Homo sapiens, UniProt O14727); assay type: functional
T1 sequence (O14727 whole entry): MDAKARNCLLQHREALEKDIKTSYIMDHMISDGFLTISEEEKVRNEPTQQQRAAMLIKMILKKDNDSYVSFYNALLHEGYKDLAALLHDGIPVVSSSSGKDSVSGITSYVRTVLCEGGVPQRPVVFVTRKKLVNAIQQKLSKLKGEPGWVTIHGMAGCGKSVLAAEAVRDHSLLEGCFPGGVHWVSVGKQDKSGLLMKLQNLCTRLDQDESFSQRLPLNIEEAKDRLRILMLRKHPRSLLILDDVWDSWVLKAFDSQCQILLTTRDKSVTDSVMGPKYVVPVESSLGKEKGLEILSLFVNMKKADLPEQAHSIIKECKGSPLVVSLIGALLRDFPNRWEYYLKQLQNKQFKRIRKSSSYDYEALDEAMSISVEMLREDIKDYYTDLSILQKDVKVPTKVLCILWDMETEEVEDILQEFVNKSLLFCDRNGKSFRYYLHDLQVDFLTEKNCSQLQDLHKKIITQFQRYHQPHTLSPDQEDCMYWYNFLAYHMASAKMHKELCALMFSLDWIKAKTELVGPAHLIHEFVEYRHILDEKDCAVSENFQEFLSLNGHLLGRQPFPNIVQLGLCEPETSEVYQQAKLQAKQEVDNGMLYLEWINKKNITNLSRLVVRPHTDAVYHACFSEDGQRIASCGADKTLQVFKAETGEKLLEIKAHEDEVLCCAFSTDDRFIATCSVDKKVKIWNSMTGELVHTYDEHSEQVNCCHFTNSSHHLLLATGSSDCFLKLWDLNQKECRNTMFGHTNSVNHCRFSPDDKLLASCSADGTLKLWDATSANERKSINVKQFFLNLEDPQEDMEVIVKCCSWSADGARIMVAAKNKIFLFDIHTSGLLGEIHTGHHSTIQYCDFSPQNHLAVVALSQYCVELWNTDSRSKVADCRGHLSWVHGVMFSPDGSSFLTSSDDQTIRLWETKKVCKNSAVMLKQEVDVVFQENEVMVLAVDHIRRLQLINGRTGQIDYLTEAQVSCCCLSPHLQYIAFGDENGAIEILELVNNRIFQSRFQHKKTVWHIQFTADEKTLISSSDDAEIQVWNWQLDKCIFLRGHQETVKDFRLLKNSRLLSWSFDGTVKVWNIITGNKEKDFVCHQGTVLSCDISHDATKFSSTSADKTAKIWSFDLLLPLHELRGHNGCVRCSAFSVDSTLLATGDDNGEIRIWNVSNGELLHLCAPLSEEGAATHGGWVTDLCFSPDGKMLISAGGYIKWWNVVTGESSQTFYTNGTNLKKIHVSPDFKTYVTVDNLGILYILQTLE

[3] = molecular target: Peroxisome proliferator-activated receptor gamma/Nuclear receptor corepressor 2 (Homo sapiens, UniProt P37231+Q9Y618); assay: Counterscreen for NR2E3 inverse agonists: TR-FRET-based biochemical high throughput dose response assay to identify inverse agonists of the interaction between peroxisome proliferator-activated receptor gamma (PPARg) and nuclear receptor co-repressor 2 (NCOR2).; assay type: functional
Peroxisome proliferator-activated receptor gamma/Nuclear receptor corepressor 2, sequence (P37231 whole entry): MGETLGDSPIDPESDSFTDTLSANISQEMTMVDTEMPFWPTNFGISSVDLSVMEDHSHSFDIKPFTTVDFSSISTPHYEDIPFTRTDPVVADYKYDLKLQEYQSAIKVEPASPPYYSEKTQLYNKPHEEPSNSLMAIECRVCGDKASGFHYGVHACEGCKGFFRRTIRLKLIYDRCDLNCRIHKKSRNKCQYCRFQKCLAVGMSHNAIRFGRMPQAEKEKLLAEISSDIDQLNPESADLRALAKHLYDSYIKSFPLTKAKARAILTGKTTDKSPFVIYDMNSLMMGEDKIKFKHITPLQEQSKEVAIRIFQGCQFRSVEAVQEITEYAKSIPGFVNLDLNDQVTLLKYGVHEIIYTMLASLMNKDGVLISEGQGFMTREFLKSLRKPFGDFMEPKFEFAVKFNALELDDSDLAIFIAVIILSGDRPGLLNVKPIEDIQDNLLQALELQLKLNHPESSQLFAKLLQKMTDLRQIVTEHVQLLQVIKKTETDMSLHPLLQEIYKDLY
Peroxisome proliferator-activated receptor gamma/Nuclear receptor corepressor 2, sequence (Q9Y618 whole entry): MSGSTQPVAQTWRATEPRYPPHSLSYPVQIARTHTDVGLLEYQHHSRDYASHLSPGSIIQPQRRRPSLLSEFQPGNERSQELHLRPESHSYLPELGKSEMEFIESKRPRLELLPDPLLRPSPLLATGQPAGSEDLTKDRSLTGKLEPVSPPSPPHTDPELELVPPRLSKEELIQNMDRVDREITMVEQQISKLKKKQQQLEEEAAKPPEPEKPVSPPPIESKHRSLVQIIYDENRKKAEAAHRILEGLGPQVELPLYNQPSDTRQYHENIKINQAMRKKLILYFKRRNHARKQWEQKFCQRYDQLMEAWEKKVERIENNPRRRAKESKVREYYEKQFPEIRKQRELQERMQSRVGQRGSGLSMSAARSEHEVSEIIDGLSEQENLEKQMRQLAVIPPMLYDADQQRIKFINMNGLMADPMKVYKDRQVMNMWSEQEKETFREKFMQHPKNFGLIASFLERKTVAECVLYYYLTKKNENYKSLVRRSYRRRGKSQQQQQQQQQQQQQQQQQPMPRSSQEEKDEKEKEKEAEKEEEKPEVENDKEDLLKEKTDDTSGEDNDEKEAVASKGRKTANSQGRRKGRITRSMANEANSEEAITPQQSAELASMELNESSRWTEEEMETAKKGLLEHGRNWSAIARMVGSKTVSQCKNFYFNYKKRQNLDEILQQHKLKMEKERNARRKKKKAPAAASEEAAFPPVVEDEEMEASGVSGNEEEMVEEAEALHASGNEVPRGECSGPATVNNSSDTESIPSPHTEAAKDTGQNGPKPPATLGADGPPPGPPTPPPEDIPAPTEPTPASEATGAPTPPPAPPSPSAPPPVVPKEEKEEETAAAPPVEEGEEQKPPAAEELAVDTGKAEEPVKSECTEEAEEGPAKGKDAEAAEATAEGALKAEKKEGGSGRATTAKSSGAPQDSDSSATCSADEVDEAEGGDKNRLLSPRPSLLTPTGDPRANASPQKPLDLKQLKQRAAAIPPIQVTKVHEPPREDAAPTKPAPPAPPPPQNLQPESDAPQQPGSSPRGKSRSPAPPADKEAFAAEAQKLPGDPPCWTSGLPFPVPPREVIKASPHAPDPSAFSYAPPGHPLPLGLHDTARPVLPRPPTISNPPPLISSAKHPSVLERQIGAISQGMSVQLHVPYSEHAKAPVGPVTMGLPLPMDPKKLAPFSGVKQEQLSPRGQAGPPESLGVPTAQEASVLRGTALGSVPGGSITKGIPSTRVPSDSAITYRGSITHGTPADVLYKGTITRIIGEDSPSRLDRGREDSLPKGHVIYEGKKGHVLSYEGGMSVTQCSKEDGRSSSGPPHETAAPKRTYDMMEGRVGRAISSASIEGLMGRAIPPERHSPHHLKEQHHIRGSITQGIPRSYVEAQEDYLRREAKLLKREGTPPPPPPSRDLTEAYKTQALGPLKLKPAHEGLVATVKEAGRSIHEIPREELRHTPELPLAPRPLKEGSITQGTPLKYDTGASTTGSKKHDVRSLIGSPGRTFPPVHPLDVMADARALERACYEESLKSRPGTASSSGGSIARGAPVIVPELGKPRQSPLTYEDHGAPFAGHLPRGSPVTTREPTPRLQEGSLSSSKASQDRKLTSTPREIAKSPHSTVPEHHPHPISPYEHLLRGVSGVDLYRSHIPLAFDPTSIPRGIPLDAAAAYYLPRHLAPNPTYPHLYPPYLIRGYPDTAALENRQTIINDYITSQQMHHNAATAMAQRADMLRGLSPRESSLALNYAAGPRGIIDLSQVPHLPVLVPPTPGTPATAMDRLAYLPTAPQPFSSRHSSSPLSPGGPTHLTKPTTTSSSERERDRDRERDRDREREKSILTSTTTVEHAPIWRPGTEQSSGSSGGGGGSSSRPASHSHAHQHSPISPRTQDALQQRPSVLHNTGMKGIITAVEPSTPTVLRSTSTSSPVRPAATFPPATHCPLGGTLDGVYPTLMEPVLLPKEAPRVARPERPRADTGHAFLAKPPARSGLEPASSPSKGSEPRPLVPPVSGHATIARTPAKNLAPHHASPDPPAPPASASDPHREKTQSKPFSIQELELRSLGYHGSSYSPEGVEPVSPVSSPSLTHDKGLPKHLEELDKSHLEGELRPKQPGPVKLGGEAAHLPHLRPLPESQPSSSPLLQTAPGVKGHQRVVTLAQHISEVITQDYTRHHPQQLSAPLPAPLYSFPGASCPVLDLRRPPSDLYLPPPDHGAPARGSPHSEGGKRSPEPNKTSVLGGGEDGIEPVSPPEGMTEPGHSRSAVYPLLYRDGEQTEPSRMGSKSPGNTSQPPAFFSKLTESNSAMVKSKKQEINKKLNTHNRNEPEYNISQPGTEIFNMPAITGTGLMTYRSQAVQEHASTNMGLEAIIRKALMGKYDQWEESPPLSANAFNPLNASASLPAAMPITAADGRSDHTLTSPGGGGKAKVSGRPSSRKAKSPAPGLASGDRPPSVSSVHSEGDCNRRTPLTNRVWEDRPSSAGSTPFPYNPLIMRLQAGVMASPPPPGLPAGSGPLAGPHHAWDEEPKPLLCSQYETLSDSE

[4] = molecular target: Photoreceptor-specific nuclear receptor (Homo sapiens, UniProt Q9Y5X4); assay: NR2E3 inverse agonists, dose response, biochemical, TR-FRET (AID 463256); assay type: functional
Photoreceptor-specific nuclear receptor, sequence (Q9Y5X4 whole entry): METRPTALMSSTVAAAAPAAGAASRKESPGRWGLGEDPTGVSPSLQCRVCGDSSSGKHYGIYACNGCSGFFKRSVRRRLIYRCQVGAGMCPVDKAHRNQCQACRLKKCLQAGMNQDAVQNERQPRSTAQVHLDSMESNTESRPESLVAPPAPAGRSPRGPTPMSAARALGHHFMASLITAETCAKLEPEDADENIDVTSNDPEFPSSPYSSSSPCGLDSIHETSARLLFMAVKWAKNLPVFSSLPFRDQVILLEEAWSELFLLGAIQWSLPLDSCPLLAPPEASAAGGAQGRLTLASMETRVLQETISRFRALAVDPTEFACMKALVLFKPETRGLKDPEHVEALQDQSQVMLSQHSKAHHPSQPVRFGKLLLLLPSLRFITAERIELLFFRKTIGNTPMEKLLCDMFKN

[5] = molecular target: Beta-galactosidase (Escherichia coli, UniProt Q8VNN2); assay: beta-galactosidase enzyme inhibitors and activators, dose response, artefact control for CCR6 antagonist project, biochemical, E. coli enzyme, set 3 (AID 504712); assay type: functional
Beta-galactosidase, sequence (Q8VNN2 whole entry): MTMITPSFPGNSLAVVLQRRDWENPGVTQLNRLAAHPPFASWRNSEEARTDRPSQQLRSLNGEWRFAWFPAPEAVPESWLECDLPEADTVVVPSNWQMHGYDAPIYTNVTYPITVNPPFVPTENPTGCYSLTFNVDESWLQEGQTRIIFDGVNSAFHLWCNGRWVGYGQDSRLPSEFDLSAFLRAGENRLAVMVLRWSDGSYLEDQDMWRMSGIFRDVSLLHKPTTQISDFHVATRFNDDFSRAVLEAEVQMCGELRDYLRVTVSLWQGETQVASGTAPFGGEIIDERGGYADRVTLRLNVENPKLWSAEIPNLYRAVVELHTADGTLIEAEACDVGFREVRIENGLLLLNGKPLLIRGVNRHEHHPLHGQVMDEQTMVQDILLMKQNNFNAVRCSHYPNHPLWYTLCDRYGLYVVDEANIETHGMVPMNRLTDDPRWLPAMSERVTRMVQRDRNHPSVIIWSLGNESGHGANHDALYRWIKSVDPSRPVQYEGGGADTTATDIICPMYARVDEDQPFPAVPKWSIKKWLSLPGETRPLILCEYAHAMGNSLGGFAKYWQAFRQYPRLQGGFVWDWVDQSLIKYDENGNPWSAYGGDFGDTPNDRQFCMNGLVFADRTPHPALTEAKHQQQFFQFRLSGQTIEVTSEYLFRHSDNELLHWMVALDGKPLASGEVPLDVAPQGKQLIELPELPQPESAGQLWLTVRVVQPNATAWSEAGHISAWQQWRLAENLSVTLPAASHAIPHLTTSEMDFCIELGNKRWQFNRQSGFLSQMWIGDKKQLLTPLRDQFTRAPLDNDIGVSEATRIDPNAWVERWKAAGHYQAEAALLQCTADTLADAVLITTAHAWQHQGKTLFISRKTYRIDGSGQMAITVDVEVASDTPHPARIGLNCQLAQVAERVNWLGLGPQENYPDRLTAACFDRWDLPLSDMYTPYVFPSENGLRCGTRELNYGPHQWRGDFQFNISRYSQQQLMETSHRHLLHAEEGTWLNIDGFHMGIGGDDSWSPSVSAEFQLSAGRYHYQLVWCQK

[6] = molecular target: Genome polyprotein (dengue virus type 2, UniProt P29990); assay: Dengue-2 NS5 methyltransferase inhibitors, primary screen, biochemical, confirmation dose response (AID 588689); assay type: functional
[7] = cells; assay type: functional, cell-based
[8] = cells; assay type: functional, cell-based; remark: listed apart in the source
[9] = Luminescence Cell-Based Dose Response to Identify Activators of 5'UTR Stem-Loop Driven Prion Protein mRNA Translation in H4-C Neuroglioblastoma Cells. [Related pubchem assays: 1829 (Project Summary), 1814 (Primary HTS)]; assay type: functional
[10] = Luminescence Cell-Based Dose Response HTS to Identify Activators of Luciferase Translation or Activity in H4 […] Cells. [Related pubchem assays: 1829 (Project Summary), 1814 (Primary HTS)]; assay type: functional
[11] = test system: H4; assay: Luminescence Cell-Based Dose Response HTS to Identify Activators of 5'UTR Stem-Loop Driven Prion Protein mRNA Translation in H4 Neuroglioblastoma Cells. [Related pubchem assays: 1829 (Project Summary), 1814 (Primary HTS)]; assay type: functional; conditions: Homo sapiens
[12] = Luminescence Cell-Based Dose Response to Identify Activators of Luciferase Translation or Activity in H4-C Neuroglioblastoma Cells. [Related pubchem assays: 1829 (Project Summary), 1814 (Primary HTS)]; assay type: functional
[13] = Luminescence Cell-Based Dose Confirmation to Identify Activators of 5'UTR Stem-Loop Driven Alpha-Synuclein mRNA Translation in H4 Neuroglioblastoma Cells. [Related pubchem assays: 1829 (Project Summary), 1814 (Primary HTS)]; assay type: functional
[14] = molecular target: FAD-linked sulfhydryl oxidase ALR (Homo sapiens, UniProt P55789); assay: inhibitors of human ALR sulfhydryl oxidase, dose response, biochemical, H2O2 detection, luminescence, cherry-pick (AID 493248)
FAD-linked sulfhydryl oxidase ALR, sequence (P55789 whole entry): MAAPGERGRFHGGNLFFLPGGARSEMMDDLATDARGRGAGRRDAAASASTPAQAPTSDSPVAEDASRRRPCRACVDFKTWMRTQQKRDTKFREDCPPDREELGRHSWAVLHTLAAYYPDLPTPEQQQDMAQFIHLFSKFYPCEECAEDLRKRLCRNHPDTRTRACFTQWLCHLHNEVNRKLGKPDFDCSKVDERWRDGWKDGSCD

[15] = test system: HeLa; assay: HeLa cell cytotoxicity, dose response, cytotoxicity control, ATP luminescence, cherry-pick samples (AID 687004); assay type: functional, cell-based; conditions: Homo sapiens
[16] = inhibitors of intracellular T. cruzi replication, confirmation, NIH3T3 host cells, beta-gal luminescence (AID 2044); assay type: functional, cell-based;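 note: intracellular parasites grown in NIH/3T3 mouse fibroblasts as host cells; luminescent beta-galactosidase reporter signal from transgenic T. cruzi replicating inside host cells; inhibitors lower the luminescence signal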
[17] = cytotoxicity toward NIH3T3 fibroblasts, dose response, counter-screen, cell-based, ATP luminescence, mouse fibroblasts (AID 2010); assay type: functional;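 note: cells exposed to compound for about 90 hours before reading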
[18] = molecular target: Induced myeloid leukemia cell differentiation protein Mcl-1 (Homo sapiens, UniProt Q07820); assay type: functional
[19] = molecular target: Cytochrome P450 2C19 (Homo sapiens, UniProt P33261); assay: Cytochrome panel assay with activity outcomes. Panel member name: p450-cyp2c19 Compounds with AC50 equal or less than 10 uM are considered active; assay type: functional; conditions: read-out: AC50
[20] = molecular target: Melanocortin receptor 4 (Homo sapiens, UniProt P32245); assay: MC4R antagonist potency on cAMP, dose response, cell-based, TR-FRET, biased antagonists (AID 602298); assay type: functional;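 note: antagonist potency against agonist-stimulated cAMP production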
Melanocortin receptor 4, sequence (P32245 whole entry): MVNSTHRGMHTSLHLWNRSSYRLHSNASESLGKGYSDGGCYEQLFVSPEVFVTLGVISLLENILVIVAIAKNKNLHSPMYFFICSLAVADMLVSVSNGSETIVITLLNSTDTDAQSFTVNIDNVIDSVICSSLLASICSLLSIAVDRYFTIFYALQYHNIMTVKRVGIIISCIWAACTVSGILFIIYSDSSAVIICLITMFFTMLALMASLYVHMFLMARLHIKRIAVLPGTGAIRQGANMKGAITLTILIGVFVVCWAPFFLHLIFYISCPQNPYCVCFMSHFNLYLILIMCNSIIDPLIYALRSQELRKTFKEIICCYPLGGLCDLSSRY

[21] = nonselective inhibitors of cellular cAMP signaling, dose response, counter-screen for MC4R biased antagonist project, cell-based, TR-FRET cAMP detection (AID 602305); assay type: functional;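 note: U2OS cells stimulated with forskolin near its EC80 as the cAMP inducer; potency is for inhibition of forskolin-stimulated cAMP signaling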
[22] = molecular target: T2, Microphthalmia-associated transcription factor (Homo sapiens, UniProt O75030); assay: TRPM1 promoter luciferase signal decrease, dose response, MITF inhibitor project, cell-based, SK-MEL-5, cherry-picked, set 3 (AID 493073); assay type: functional
T2 sequence (O75030 whole entry): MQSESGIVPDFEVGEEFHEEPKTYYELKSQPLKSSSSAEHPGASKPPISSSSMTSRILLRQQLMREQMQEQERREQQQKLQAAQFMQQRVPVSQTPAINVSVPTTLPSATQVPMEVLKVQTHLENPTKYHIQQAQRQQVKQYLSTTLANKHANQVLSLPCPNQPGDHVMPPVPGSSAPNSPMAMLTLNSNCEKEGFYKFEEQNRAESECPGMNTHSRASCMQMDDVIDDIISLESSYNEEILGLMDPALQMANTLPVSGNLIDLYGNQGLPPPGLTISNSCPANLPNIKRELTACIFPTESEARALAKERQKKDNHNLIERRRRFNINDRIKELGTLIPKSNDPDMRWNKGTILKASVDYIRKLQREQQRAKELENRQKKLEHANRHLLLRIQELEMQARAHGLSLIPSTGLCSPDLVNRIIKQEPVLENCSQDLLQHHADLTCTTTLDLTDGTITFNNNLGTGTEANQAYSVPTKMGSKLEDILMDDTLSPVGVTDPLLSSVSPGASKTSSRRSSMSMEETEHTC

[23] = molecular target: Trypsin (Sus scrofa, UniProt P00761); assay: porcine trypsin inhibitors, dose response, selectivity assay for Rce1 protease inhibitor project, biochemical, quenched peptide fluorescence, cherry-pick (AID 488789)
[24] = THP-1 cell cytotoxicity, dose response, cytotoxicity control for Vif-APOBEC3G degradation inhibitor project, THP-1 cells (AID 1117359); assay type: functional; conditions: Human immunodeficiency virus 1, THP-1

Compound: Cc1ccccc1C(=O)c1cccn1CC(=O)NCCC1=CCCCC1
- EC50 [1]: > 50 µM (active)

Compound: Cc1cccc(NC(=O)CSCC(=O)N(C)Cc2ccc(Cl)c(Cl)c2)c1
- IC50 [2]: > 100 µM (inactive)

Compound: CCOc1cnn(Cc2ccccc2)c(=O)c1SCc1ccccc1
- IC50 [3]: > 39.8 µM (not active)
- IC50 [4]: 15.5 µM (not active)

Compound: CN(C)c1c([N+](=O)[O-])cc(N2C(=O)C=CC2=O)cc1[N+](=O)[O-]
- IC50 [5]: > 66.6 µM (inactive)
- IC50 [6]: 11.1 µM (active)

Compound: CN1C(=O)C2CN(CCc3ccccc3)CNC2N(C)C1=O (centres undefined)
- IC50 [7]: > 29.9 µM (inactive)
- EC50 [8]: > 29.9 µM (inactive)

Compound: CSc1nc(-c2ccc(Cl)cc2)c[nH]1
- EC50 [9]: 2.01 µM (active)
- EC50 [10]: 0.284 µM (active)
- EC50 [11]: < 0.1 µM (active)
- EC50 [12]: 0.276 µM (active)
- EC50 [13]: 0.386 µM (active)
- AC50 [14]: 2.02 µM (active)

Compound: Cc1cc(C)c(NC(=O)C2CCCN2CCC(C)C)c(C)c1 (centres undefined)
- AC50 [15]: > 52 µM (inactive)

Compound: CCn1c(C)cc(/C=C2\NC(=O)N(Cc3ccc(Cl)cc3)C2=O)c1C
- EC50 [16]: 0.178 µM (active)
- EC50 [17]: > 30 µM (not active)
- IC50 [18]: 3.37 µM (active)
- AC50 [19]: 1.78 µM (inconclusive)

Compound: C[C@@H]1CN([C@@H](C)CO)C(=O)CCCn2nncc2CO[C@@H]1CN(C)Cc1cccc(C(F)(F)F)c1
- AC50 [15]: > 52 µM (inactive)

Compound: CN(C)C1C(=O)C(C(N)=O)=C(O)C2(O)C(O)=C3C(=O)c4c(O)cccc4C(C)(O)C3CC12 (centres undefined)
- EC50 [1]: > 50 µM (active)

Compound: CCCc1nc(SCC(=O)Nc2nc3c(s2)CCCC3)c2ccccc2n1
- IC50 [20]: > 64.6 µM (inactive)
- IC50 [21]: > 64.6 µM (inactive)

Compound: COc1ccc2oc(C(=O)Nc3ccc(S(=O)(=O)N(C)C4CCN(C)CC4)cc3)c(C)c2c1
- EC50 [16]: 0.17 µM (active)
- EC50 [17]: 9.46 µM (active)
- AC50 [22]: 13 µM (active)

Compound: Nc1nn2cc(-c3ccccc3)nc2c2ccccc12
- EC50 [1]: > 50 µM (active)

Compound: Cc1cc2oc(C(=O)NCc3ccncc3)c(C)c2cc1C
- EC50 [1]: > 50 µM (active)

Compound: CCS(=O)(=O)Nc1c(C(=O)O)[nH]c2ccccc12
- AC50 [23]: > 100 µM (inactive)
- AC50 [14]: 0.6 µM (active)

Compound: O=C(Nc1ccc(F)c([N+](=O)[O-])c1)C1CC(=O)N(Cc2ccccc2)C1 (centres undefined)
- IC50 [20]: > 64.6 µM (inactive)
- IC50 [21]: > 64.6 µM (inactive)

Compound: O=C(Nc1ccnc(-c2cccnc2)n1)c1ccc(Cl)cc1
- IC50 [3]: 5.27 µM (active)
- IC50 [4]: 5.23 µM (active)

Compound: O=C(CSc1nccc(O)n1)N1CCc2ccccc2C1
- IC50 [7]: > 29.9 µM (inactive)
- EC50 [8]: > 29.9 µM (inactive)

Compound: CSc1cccc(NC(=O)c2cc(S(=O)(=O)N3CCCCC3)c[nH]2)c1
- IC50 [3]: 4.12 µM (active)
- IC50 [4]: 3.45 µM (active)

Compound: CC/N=c1\scc(C)n1/N=C/c1ccsc1
- EC50 [9]: 0.66 µM (active)
- EC50 [10]: 16.6 µM (active)
- EC50 [11]: 11.1 µM (active)
- EC50 [12]: 0.582 µM (active)
- EC50 [13]: 1.08 µM (active)

Compound: Cc1cccc(C)c1NC(=O)C(CCc1ccccc1)N1CCC(c2ccccc2)CC1 (centres undefined)
- AC50 [15]: > 52 µM (inactive)

Compound: Cc1ccc(OCC(=O)Nc2ccc3c(c2)OCO3)c(C)c1
- EC50 [9]: > 12 µM (not active)
- EC50 [10]: < 0.1 µM (active)
- EC50 [11]: 31.7 µM (active)
- EC50 [12]: 1.1 µM (active)
- EC50 [13]: 0.914 µM (active)

Compound: CN(C)CCCN1C(=O)C(O)=C(C(=O)c2cc3ccccc3o2)C1c1ccccn1 (centres undefined)
- IC50 [20]: > 64.6 µM (inactive)
- IC50 [21]: > 64.6 µM (inactive)

Compound: Cc1nn(-c2ccccc2)c(O)c1/C=N/N1C(=O)c2ccc3c4c(ccc(c24)C1=O)CC3
- IC50 [5]: > 66.6 µM (inactive)

Compound: COc1cc(OC)c2ccc(=O)oc2c1C(CCN1CCCC(C)C1)c1ccc2c(c1)OCO2 (centres undefined)
- CC50 [24]: > 40 µM (active)

Compound: Cn1c(=O)c(=O)n(C)c2cc(S(=O)(=O)N3CCc4ccccc43)ccc21
- EC50 [1]: > 50 µM (active)
